Data taken from US10231954B2, “Neurodegenerative therapies” (LYTIX BIOPHARMA AS, priority 2014, dated 2019).
Read-outs that look alike come from different tables or passages of the source.

Tests used:
Type in all cases: biochemical
[1] = target: PIM2 (Homo sapiens, UniProt Q9P1W9); test: Kinase profiling PIM2; conditions: for remaining activity at 100 µM: read-out: residual kinase activity, PIM2
Source text: (§1) Any value less that 25 is considered to be highly significant inhibition.

[2] = target: MEKK1 (Homo sapiens, UniProt Q13233); test: Kinase profiling MEKK1; conditions: for remaining activity at 100 µM: read-out: residual kinase activity, MEKK1
Source text: as §1

[3] = target: TIE2 (Homo sapiens, UniProt Q02763); test: Kinase profiling TIE2; conditions: for remaining activity at 100 µM: read-out: residual kinase activity, TIE2
Sequence of TIE2 (Q02763 23-1124, species assumed): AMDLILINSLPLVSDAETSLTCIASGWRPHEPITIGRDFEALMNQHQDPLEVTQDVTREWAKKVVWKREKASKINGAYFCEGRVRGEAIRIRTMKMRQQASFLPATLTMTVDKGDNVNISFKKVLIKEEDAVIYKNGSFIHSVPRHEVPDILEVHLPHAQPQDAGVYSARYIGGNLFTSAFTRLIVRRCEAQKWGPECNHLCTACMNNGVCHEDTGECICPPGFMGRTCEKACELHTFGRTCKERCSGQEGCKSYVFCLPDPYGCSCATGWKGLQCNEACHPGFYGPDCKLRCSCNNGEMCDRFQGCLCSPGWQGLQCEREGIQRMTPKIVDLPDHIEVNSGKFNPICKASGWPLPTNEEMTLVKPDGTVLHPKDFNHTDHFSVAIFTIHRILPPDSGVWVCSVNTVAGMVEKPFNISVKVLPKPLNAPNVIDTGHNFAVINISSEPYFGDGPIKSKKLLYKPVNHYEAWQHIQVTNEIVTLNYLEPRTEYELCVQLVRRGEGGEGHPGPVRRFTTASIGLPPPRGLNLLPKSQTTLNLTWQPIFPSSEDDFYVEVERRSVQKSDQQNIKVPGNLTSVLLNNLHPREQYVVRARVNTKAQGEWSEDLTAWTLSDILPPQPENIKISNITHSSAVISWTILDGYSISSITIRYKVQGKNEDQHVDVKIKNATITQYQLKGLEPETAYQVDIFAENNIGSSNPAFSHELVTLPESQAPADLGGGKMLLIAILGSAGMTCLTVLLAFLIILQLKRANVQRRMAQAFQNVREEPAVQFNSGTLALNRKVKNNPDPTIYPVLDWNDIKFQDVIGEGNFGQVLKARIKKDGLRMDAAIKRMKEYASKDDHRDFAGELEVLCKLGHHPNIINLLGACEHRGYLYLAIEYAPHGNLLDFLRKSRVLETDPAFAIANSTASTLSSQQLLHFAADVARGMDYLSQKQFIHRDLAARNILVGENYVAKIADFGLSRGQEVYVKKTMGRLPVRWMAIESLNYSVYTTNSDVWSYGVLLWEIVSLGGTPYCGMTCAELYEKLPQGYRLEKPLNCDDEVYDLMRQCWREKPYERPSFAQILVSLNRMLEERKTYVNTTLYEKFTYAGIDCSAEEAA
Source text: as §1

[4] = target: SIK3 (Homo sapiens, UniProt Q9Y2K2); test: Kinase profiling SIK3; conditions: for remaining activity at 100 µM: read-out: residual kinase activity, SIK3
Source text: as §1

[5] = target: CDK2-Cyclin A (Homo sapiens, UniProt P24941); test: Kinase profiling CDK2-Cyclin A; conditions: for remaining activity at 100 µM: read-out: residual kinase activity, CDK2-Cyclin A
Source text: as §1

[6] = target: TESK1 (Homo sapiens, UniProt Q15569); test: Kinase profiling TESK1; conditions: for remaining activity at 100 µM: read-out: residual kinase activity, TESK1
Source text: as §1

[7] = target: IRR (Homo sapiens, UniProt P14616); test: Kinase profiling IRR; conditions: for remaining activity at 100 µM: read-out: residual kinase activity, IRR
Sequence of IRR (P14616 27-1297, species assumed): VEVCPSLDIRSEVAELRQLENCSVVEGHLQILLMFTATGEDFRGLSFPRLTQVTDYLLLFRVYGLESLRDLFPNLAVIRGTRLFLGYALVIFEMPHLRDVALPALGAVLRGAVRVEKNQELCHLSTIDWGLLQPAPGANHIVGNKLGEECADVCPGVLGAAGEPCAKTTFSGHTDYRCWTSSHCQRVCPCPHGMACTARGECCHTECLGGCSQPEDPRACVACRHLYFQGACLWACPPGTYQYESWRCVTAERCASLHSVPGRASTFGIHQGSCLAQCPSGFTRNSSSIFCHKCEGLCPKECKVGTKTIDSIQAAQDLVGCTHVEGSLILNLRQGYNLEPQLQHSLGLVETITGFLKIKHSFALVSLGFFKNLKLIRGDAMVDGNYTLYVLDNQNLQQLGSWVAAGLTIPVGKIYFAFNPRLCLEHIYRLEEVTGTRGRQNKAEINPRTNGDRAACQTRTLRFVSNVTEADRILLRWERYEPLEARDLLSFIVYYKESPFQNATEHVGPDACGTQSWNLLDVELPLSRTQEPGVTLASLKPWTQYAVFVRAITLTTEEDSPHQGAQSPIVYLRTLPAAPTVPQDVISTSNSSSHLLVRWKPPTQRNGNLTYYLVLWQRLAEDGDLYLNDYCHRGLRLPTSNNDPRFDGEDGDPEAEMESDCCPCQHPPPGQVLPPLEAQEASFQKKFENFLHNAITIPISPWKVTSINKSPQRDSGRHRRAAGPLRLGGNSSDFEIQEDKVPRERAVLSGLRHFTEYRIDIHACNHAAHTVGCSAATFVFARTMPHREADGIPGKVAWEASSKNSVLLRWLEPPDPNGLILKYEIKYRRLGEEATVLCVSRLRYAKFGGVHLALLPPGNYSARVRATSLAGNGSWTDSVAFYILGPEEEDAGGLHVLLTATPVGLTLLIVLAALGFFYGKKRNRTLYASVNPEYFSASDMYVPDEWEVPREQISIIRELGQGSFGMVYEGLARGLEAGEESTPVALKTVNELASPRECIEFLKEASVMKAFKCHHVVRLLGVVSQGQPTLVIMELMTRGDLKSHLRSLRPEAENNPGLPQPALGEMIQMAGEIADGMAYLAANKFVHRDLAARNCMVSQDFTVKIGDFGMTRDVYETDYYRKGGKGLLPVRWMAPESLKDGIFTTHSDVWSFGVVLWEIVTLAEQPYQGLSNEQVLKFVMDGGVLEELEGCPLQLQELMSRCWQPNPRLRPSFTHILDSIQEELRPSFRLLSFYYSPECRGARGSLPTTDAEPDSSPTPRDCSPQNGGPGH
Source text: as §1

[8] = target: ERK5 (Homo sapiens, UniProt Q13164); test: Kinase profiling ERK5; conditions: for remaining activity at 100 µM: read-out: residual kinase activity, ERK5
Sequence of ERK5 (Q13164 whole entry, species assumed): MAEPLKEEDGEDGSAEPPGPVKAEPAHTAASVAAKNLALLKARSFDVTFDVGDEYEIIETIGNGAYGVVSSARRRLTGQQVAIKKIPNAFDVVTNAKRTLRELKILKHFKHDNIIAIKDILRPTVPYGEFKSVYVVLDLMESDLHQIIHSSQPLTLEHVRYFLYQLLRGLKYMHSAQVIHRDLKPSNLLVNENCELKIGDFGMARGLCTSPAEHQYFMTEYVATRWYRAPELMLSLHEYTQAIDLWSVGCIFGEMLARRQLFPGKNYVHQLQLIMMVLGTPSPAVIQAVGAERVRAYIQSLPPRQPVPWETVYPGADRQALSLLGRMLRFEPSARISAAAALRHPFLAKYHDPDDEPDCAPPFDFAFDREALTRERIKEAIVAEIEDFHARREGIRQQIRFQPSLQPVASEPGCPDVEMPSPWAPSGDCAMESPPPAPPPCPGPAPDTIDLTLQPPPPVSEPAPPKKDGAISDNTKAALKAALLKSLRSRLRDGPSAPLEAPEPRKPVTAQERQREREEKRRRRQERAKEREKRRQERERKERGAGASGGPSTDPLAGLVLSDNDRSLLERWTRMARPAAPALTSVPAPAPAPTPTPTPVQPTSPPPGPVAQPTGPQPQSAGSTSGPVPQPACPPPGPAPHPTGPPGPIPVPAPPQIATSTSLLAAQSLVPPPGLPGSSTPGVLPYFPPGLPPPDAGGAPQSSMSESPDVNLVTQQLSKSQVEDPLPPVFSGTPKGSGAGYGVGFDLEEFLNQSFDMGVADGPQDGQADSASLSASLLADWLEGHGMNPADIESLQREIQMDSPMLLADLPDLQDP
Source text: as §1

[9] = target: MINK1 (Homo sapiens, UniProt Q8N4C8); test: Kinase profiling MINK1; conditions: for remaining activity at 100 µM: read-out: residual kinase activity, MINK1
Source text: as §1

[10] = target: IR (Homo sapiens, UniProt P06213); test: Kinase profiling IR; conditions: for remaining activity at 100 µM: read-out: residual kinase activity, IR
Source text: as §1

[11] = target: MST4 (Homo sapiens, UniProt Q9P289); test: Kinase profiling MST4; conditions: for remaining activity at 100 µM: read-out: residual kinase activity, MST4
Sequence of MST4 (Q9P289 whole entry, species assumed): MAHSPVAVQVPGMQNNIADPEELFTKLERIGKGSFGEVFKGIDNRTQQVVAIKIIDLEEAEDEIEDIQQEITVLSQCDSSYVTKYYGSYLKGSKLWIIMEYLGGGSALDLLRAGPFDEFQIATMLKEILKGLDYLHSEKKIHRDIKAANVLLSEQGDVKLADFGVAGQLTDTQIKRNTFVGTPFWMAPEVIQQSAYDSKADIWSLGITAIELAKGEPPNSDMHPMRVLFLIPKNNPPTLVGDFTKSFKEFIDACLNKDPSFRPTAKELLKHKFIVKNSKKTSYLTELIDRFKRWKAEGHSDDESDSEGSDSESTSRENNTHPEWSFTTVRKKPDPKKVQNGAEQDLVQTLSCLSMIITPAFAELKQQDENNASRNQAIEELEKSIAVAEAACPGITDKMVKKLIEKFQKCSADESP
Source text: as §1

[12] = target: TTBK1 (Homo sapiens, UniProt Q5TCY1); test: Kinase profiling TTBK1; conditions: for remaining activity at 100 µM: read-out: residual kinase activity, TTBK1
Sequence of TTBK1 (Q5TCY1 whole entry, species assumed): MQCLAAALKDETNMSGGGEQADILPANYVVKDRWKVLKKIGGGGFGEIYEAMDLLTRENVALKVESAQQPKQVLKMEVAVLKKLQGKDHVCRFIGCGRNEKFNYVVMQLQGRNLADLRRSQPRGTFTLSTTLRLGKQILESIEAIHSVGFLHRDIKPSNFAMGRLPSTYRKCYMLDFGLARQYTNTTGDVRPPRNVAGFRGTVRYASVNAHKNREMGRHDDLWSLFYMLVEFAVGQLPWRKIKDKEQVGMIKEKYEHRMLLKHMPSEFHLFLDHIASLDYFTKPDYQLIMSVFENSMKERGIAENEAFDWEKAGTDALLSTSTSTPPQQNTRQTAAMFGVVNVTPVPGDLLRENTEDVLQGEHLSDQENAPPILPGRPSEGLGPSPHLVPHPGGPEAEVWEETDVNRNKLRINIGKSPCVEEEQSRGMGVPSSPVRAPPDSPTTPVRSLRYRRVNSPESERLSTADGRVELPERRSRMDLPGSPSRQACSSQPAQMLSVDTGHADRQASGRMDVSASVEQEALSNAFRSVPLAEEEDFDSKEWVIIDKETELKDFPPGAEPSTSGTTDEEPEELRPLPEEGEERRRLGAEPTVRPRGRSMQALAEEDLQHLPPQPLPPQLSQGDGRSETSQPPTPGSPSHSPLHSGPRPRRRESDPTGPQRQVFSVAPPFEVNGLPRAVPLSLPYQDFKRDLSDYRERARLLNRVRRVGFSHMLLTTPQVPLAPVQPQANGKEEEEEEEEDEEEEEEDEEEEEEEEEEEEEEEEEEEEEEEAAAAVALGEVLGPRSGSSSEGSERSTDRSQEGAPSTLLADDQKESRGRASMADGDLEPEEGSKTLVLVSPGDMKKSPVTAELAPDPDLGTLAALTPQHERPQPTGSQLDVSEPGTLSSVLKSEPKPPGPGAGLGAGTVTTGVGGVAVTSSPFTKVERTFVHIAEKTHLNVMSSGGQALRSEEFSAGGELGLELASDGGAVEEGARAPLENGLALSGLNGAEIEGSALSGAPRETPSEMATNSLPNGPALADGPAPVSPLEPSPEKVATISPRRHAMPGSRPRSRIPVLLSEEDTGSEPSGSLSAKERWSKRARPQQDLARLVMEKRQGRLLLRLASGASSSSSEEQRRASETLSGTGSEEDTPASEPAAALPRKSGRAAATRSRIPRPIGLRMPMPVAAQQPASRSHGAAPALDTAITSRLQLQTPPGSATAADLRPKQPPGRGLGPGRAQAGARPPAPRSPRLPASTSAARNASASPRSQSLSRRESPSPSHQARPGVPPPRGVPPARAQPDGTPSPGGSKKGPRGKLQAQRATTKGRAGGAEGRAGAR
Source text: as §1

[13] = target: T1, ZAP70 (Homo sapiens, UniProt P43403); test: Kinase profiling ZAP70; conditions: for remaining activity at 100 µM: read-out: residual kinase activity, ZAP70
T1 sequence (P43403 1-619): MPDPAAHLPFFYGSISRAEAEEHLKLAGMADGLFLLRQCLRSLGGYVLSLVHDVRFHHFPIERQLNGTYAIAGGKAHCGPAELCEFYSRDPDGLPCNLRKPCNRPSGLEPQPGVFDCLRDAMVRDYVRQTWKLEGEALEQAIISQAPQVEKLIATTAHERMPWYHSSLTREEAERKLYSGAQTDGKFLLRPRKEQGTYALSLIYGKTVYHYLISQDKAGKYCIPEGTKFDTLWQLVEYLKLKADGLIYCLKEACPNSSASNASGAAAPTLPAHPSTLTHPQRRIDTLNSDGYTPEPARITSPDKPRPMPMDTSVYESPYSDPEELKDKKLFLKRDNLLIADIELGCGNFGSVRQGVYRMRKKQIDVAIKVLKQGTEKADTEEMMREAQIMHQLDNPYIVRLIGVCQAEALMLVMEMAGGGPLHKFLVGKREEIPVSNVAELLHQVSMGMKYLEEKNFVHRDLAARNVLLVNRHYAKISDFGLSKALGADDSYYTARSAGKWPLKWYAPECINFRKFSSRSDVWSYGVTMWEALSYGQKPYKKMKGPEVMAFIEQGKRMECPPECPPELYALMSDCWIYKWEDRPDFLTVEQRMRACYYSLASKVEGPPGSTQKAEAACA
Source text: as §1

[14] = target: T2, TSSK1 (Homo sapiens, UniProt Q9BXA7); test: Kinase profiling TSSK1; conditions: for remaining activity at 100 µM: read-out: residual kinase activity, TSSK1
T2 sequence (Q9BXA7 1-367): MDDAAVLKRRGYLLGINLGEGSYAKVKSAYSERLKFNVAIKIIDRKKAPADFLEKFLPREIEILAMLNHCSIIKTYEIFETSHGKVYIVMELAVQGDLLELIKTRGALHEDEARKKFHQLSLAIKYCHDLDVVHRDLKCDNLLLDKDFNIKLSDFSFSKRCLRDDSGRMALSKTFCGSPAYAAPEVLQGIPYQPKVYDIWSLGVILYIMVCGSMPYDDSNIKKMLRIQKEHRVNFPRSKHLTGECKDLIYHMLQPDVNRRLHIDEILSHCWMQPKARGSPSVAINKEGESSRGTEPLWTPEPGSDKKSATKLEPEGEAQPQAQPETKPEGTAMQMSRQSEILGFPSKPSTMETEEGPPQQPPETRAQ
Source text: as §1

[15] = target: WNK1 (Homo sapiens, UniProt Q9H4A3); test: Kinase profiling WNK1; conditions: for remaining activity at 100 µM: read-out: residual kinase activity, WNK1
Source text: as §1

[16] = target: MST3 (Homo sapiens, UniProt Q9Y6E0); test: Kinase profiling MST3; conditions: for remaining activity at 100 µM: read-out: residual kinase activity, MST3
Source text: as §1

[17] = target: PDGFRA (Homo sapiens, UniProt P16234); test: Kinase profiling PDGFRA; conditions: for remaining activity at 100 µM: read-out: residual kinase activity, PDGFRA
Source text: as §1

[18] = 100 micromolar inhibitor, 100 = no change
[19] = 100 micromolar inhibitor concentration, 100 is no change

## CC(=O)Nc1cccc(NC(=O)c2nc3ccc(O)cc3s2)c1 [Compound 03-07, N-(3-acetamidophenyl)-6-hydroxybenzo[d]thiazole-2-carboxamide]
[1]; [18]
  remaining activity at 100 µM: 61%
[2]; [18]
  remaining activity at 100 µM: 115%
[3]; [18]
  remaining activity at 100 µM: 78%
[4]; [18]
  remaining activity at 100 µM: 56%
[5]; [18]
  remaining activity at 100 µM: 99%
[6]; [18]
  remaining activity at 100 µM: 101%
[7]; [18]
  remaining activity at 100 µM: 75%
[8]; [18]
  remaining activity at 100 µM: 48%
[9]; [18]
  remaining activity at 100 µM: 18%
[10]; [18]
  remaining activity at 100 µM: 66%
[11]; [18]
  remaining activity at 100 µM: 76%
[12]; [18]
  remaining activity at 100 µM: 93%
[13]; [18]
  remaining activity at 100 µM: 94%
[14]; [18]
  remaining activity at 100 µM: 57%
[15]; [18]
  remaining activity at 100 µM: 115%
[16]; [18]
  remaining activity at 100 µM: 85%
[17]; [18]
  remaining activity at 100 µM: 44%

## O=C(Nc1nc2cc(O)ccc2s1)c1ccncc1 [Compound 03-11]
[1]; [19]
  residual kinase activity, PIM2: 89
[2]; [19]
  residual kinase activity, MEKK1: 106
[3]; [19]
  residual kinase activity, TIE2: 84
[4]; [19]
  residual kinase activity, SIK3: 99
[5]; [19]
  residual kinase activity, CDK2-Cyclin A: 98
[6]; [19]
  residual kinase activity, TESK1: 88
[7]; [19]
  residual kinase activity, IRR: 86
[8]; [19]
  residual kinase activity, ERK5: 58
[9]; [19]
  residual kinase activity, MINK1: 63
[10]; [19]
  residual kinase activity, IR: 106
[11]; [19]
  residual kinase activity, MST4: 134
[12]; [19]
  residual kinase activity, TTBK1: 99
[13]; [19]
  residual kinase activity, ZAP70: 89
[14]; [19]
  residual kinase activity, TSSK1: 97
[15]; [19]
  residual kinase activity, WNK1: 88
[16]; [19]
  residual kinase activity, MST3: 92
[17]; [19]
  residual kinase activity, PDGFRA: 63

## O=C(Nc1nc2ccc(O)cc2s1)c1ccccn1 [Compound 03-12]
[1]; [19]
  residual kinase activity, PIM2: 75
[2]; [19]
  residual kinase activity, MEKK1: 127
[3]; [19]
  residual kinase activity, TIE2: 76
[4]; [19]
  residual kinase activity, SIK3: 82
[5]; [19]
  residual kinase activity, CDK2-Cyclin A: 87
[6]; [19]
  residual kinase activity, TESK1: 84
[7]; [19]
  residual kinase activity, IRR: 82
[8]; [19]
  residual kinase activity, ERK5: 53
[9]; [19]
  residual kinase activity, MINK1: 48
[10]; [19]
  residual kinase activity, IR: 27
[11]; [19]
  residual kinase activity, MST4: 80
[12]; [19]
  residual kinase activity, TTBK1: 91
[13]; [19]
  residual kinase activity, ZAP70: 91
[14]; [19]
  residual kinase activity, TSSK1: 66
[15]; [19]
  residual kinase activity, WNK1: 91
[16]; [19]
  residual kinase activity, MST3: 85
[17]; [19]
  residual kinase activity, PDGFRA: 56

## O=C(Nc1nc2cc(O)ccc2s1)c1ccccn1 [Compound 03-13]
[1]; [19]
  residual kinase activity, PIM2: 77
[2]; [19]
  residual kinase activity, MEKK1: 114
[3]; [19]
  residual kinase activity, TIE2: 106
[4]; [19]
  residual kinase activity, SIK3: 96
[5]; [19]
  residual kinase activity, CDK2-Cyclin A: 91
[6]; [19]
  residual kinase activity, TESK1: 93
[7]; [19]
  residual kinase activity, IRR: 78
[8]; [19]
  residual kinase activity, ERK5: 51
[9]; [19]
  residual kinase activity, MINK1: 31
[10]; [19]
  residual kinase activity, IR: 74
[11]; [19]
  residual kinase activity, MST4: 76
[12]; [19]
  residual kinase activity, TTBK1: 100
[13]; [19]
  residual kinase activity, ZAP70: 105
[14]; [19]
  residual kinase activity, TSSK1: 95
[15]; [19]
  residual kinase activity, WNK1: 100
[16]; [19]
  residual kinase activity, MST3: 78
[17]; [19]
  residual kinase activity, PDGFRA: 43

## COc1ccc2sc(NC(C)=O)nc2c1 [Compound 03-21]
[1]; [19]
  remaining activity at 100 µM: 48%
[2]; [19]
  remaining activity at 100 µM: 113%
[3]; [19]
  remaining activity at 100 µM: 91%
[4]; [19]
  remaining activity at 100 µM: 121%
[5]; [19]
  remaining activity at 100 µM: 93%
[6]; [19]
  remaining activity at 100 µM: 104%
[7]; [19]
  remaining activity at 100 µM: 47%
[8]; [19]
  remaining activity at 100 µM: 57%
[9]; [19]
  remaining activity at 100 µM: 61%
[10]; [19]
  remaining activity at 100 µM: 109%
[11]; [19]
  remaining activity at 100 µM: 88%
[12]; [19]
  remaining activity at 100 µM: 93%
[13]; [19]
  remaining activity at 100 µM: 98%
[14]; [19]
  remaining activity at 100 µM: 75%
[15]; [19]
  remaining activity at 100 µM: 121%
[16]; [19]
  remaining activity at 100 µM: 91%
[17]; [19]
  remaining activity at 100 µM: 87%
